Measured values published in patent US20070265256A1, “Phosphodiesterase 10 inhibitors” (priority 2006, published 2007).

The molecules below were run against T1, mPDE10A7 (Mus musculus, UniProt Q8CA95) (assay: mPDE10A7 enzyme inhibition (IMAP fluorescence polarization)). Conditions: fluorescein labeled cAMP or cGMP substrate.
T1 sequence (Q8CA95 446-763 limits assumed): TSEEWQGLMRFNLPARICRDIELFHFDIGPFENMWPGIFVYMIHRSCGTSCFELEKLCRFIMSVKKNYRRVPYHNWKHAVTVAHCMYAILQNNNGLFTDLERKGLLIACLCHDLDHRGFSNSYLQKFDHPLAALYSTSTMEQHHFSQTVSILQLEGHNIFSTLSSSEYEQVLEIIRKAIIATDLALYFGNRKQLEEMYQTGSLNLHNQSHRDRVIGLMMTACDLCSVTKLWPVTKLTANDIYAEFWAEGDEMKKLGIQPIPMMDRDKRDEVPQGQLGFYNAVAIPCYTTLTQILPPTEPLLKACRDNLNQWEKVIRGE
Type: biochemical
Procedure: To analyze the enzyme activity, 5 μL of serial diluted mPDE10A7 containing lysate were incubated with equal volumes of diluted (100-fold) fluorescein labeled cAMP or cGMP for 30 minutes in MDC HE 96-well assay plates at room temperature. Both the enzyme and the substrates were diluted in the following assay buffer: Tris/HCl (pH 8.0) 50 mM, MgCl2 5 mM, 2-mercaptoethanol 4 mM, BSA 0.33 mg/mL. After incubation, the reaction was stopped by adding 20 μL of diluted (400-fold) binding reagents and was incubated for an hour at room temperature. The plates were counted in an Analyst GT (Molecular Devices) for fluorescence polarization. An IMAP Assay kit (Molecular Device) was used to assess enzyme properties of mmPDE10A7. Data were analyzed with SoftMax Pro.
To check the inhibition profile, 10 μL of serial diluted compounds were incubated with 30 μl of diluted PDE enzymes in a 96-well polystyrene assay plate for 30 minutes at room temperature. After incubation, 5 μL of the compound-enzyme mixture were aliquoted into a MDC HE black plate, mixed with 5 μL of 100-fold diluted fluorescein labeled substrates (cAMP or cGMP), and incubated for 30 minutes at room temperature. The reaction was stopped by adding 20 μL of diluted binding reagents and counted in an Analyst GT for fluorescence polarization. The data were analyzed with SoftMax Pro.

| Compound | IC50 |
| --- | --- |
| COc1cc2nncc(-c3cccc(N4CCOCC4)c3)c2cc1OC [Cpd 1, 6,7-dimethoxy-4-(3-morpholin-4-ylphenyl)cinnoline] | 57.9 nM |
| CCS(=O)(=O)c1cccc(-c2cnnc3cc(OC)c(OC)cc23)c1 [Cpd 3, 4-[3-(Ethylsulfonyl)phenyl]-6,7-dimethoxycinnoline] | 29.8 nM |
| COc1cc2nncc(N3CCc4cc(N5CCCCC5)ccc4C3=O)c2cc1OC [Cpd 4, 2-(6,7-dimethoxycinnolin-4-yl)-6-piperidin-1-yl-3,4-dihydroisoquinolin-1(2H)-one] | 167 nM |
| COc1cc2nncc(-c3cccc(-c4cnn(C)c4)c3)c2cc1OC [Cpd 5, 6,7-dimethoxy-4-[3-(1-methyl-1H-pyrazol-4-yl)phenyl]cinnoline hydroformate] | 79.8 nM |
| COc1cc2nncc(N3CCc4[nH]nc(C(=O)NC5CC5)c4C3)c2cc1OC [Cpd 7, N-cyclopropyl-5-(6,7-dimethoxycinnolin-4-yl)-4,5,6,7-tetrahydro-1H-pyrazolo[4,3-c]pyridine-3-carboxamide] | 19.3 nM |
| COc1cc2nncc(-c3cccc(C4=NC(C)(C)CO4)c3)c2cc1OC [Cpd 8, 4-[3-(4,4-Dimethyl-4,5-dihydro-1,3-oxazol-2-yl)phenyl]-6,7-dimethoxycinnoline] | 30.6 nM |
| COc1cccc(-n2cc(-c3cnnc4cc(OC)c(OC)cc34)cn2)c1 [Cpd 10, 6,7-Dimethoxy-4-[1-(3-methoxyphenyl)-1H-pyrazol-4-yl]cinnoline hydroformate] | 68 nM |
| CCOC(=O)c1n[nH]c2ccc(-c3cnnc4cc(OC)c(OC)cc34)cc12 [Cpd 12, Ethyl 5-(6,7-dimethoxycinnolin-4-yl)-1H-indazole-3-carboxylate] | 12.1 nM |
| COc1cc2nncc(-c3cccc(NC(C)=O)c3)c2cc1OC [Cpd 14, N-[3-(6,7-dimethoxycinnolin-4-yl)phenyl]acetamide hydroformate] | 43 nM |
| COc1cc2nncc(-c3cccc(N(C)C)c3)c2cc1OC [Cpd 15, 3-(6,7-Dimethoxycinnolin-4-yl)-N,N-dimethylaniline hydroformate] | 22.8 nM |
| COc1cc2nncc(-n3ccc4cc(N5CCOCC5)ccc43)c2cc1OC [Cpd 20, 6,7-dimethoxy-4-(5-morpholin-4-yl-1H-indol-1-yl)cinnoline hydroformate] | 209 nM |
| COc1cc2nncc(-c3cnn(Cc4ccc(C)cc4)c3)c2cc1OC [Cpd 21, 6,7-Dimethoxy-4-[1-(4-methylbenzyl)-1H-pyrazol-4-yl]cinnoline] | 43.6 nM |
| COc1cc2nncc(-c3cnn(Cc4ccc(-c5ccccc5)cc4)c3)c2cc1OC [Cpd 23, 4-[1-(Biphenyl-4-ylmethyl)-1H-pyrazol-4-yl]-6,7-dimethoxycinnoline] | 474 nM |
| COC(=O)c1ccc(Cn2cc(-c3cnnc4cc(OC)c(OC)cc34)cn2)cc1 [Cpd 24, Methyl 4-{[4-(6,7-dimethoxycinnolin-4-yl)-1H-pyrazol-1-yl]methyl}benzoate] | 48.7 nM |
| COc1cc2nncc(-c3cnn(Cc4cccc(C(F)(F)F)c4)c3)c2cc1OC [Cpd 26, 6,7-Dimethoxy-4-{1-[3-(trifluoromethyl)benzyl]-1H-pyrazol-4-yl}cinnoline] | 182 nM |
| COc1cc2nncc(-c3cnn(Cc4ccccc4C#N)c3)c2cc1OC [Cpd 28, 2-{[4-(6,7-Dimethoxycinnolin-4-yl)-1H-pyrazol-1-yl]methyl}benzonitrile] | 101 nM |
| COc1cc2nncc(-c3cnn(Cc4ccc(OC(F)(F)F)cc4)c3)c2cc1OC [Cpd 32, 6,7-dimethoxy-4-{1-[4-(trifluoromethoxy)benzyl]-1H-pyrazol-4-yl}cinnoline] | 459 nM |
| COc1cc2nncc(-c3ccc(N4CCOCC4)nc3)c2cc1OC [Cpd 33, 6,7-Dimethoxy-4-(6-morpholin-4-ylpyridin-3-yl)cinnoline] | 11.1 nM |
| COc1cc2nncc(-c3cnn(Cc4ccc(F)cc4)c3)c2cc1OC [Cpd 35, 4-[1-(4-fluorobenzyl)-1H-pyrazol-4-yl]-6,7-dimethoxycinnoline hydroformate] | 10.4 nM |
| COc1cc2nncc(-c3ccnc(N4CCOCC4)c3F)c2cc1OC [Cpd 42] | 62 nM |
| COc1cc2nncc(-c3cnc(N4CCN(C)CC4)nc3)c2cc1OC [Cpd 43, 6,7-dimethoxy-4-[2-(4-methylpiperazin-1-yl)pyrimidin-5-yl]cinnoline] | 19.9 nM |
| COc1cc2nncc(N3CCc4c(OCC5CC5)cccc4C3=O)c2cc1OC [Cpd 46] | 247 nM |
| CCOC(=O)c1noc2ccc(-c3cnnc4cc(OC)c(OC)cc34)cc12 [Cpd 52] | 48.4 nM |
| COc1cc2nncc(-c3ccnc(N4CCN(C)C(=O)C4)c3)c2cc1OC [Cpd 54] | 55.8 nM |

| Compound | IC50 |
| --- | --- |
| COc1cc2nncc(-c3ccc(N4CCC(OC)C4)nc3)c2cc1OC (stereo not drawn) [Cpd 55] | 10.5 nM |
| COc1cc2nncc(-c3ccc(N4CCC(F)(F)CC4)nc3)c2cc1OC [Cpd 56] | 29.5 nM |
| COc1cc2nncc(-c3ccc(NC(C)C)nc3)c2cc1OC [Cpd 59] | 8.23 nM |
| COCCNc1ccc(-c2cnnc3cc(OC)c(OC)cc23)cn1 [Cpd 62] | 36.2 nM |
| COc1cc2nncc(-c3ccc(NCCN)nc3)c2cc1OC [Cpd 63] | 614 nM |
| COc1cc2nncc(-c3ccc(NCC4CCN4C(=O)OC(C)(C)C)nc3)c2cc1OC (stereo not drawn) [Cpd 65] | 66.6 nM |
| COc1cc2nncc(-c3ccc(OCc4ccc5ccccc5n4)cc3)c2cc1OC [Cpd 68] | 106 nM |
| COc1cc2nncc(-c3ccc(N4CCn5c(nnc5C(F)(F)F)C4)nc3)c2cc1OC [Cpd 72] | 68.6 nM |
| CNC1CCN(c2ccc(-c3cnnc4cc(OC)c(OC)cc34)cn2)CC1 [Cpd 79] | 362 nM |
| COc1cc2nncc(-c3ccc(Nc4ccccc4)nc3)c2cc1OC [Cpd 81] | 89.1 nM |
| COc1cc2nncc(-c3ccc(Oc4ccccc4)nc3)c2cc1OC [Cpd 87] | 152 nM |
| COc1cc2nncc(-c3ccc(Nc4ccc(N(C)C)cc4)nc3)c2cc1OC [Cpd 88] | 179 nM |
| COc1cc2nncc(-c3ccc(OCC4CC4)nc3)c2cc1OC [Cpd 89, 4-(6-(cyclopropylmethoxy)pyridin-3-yl)-6,7-dimethoxycinnoline] | 33.8 nM |
| COc1cc2nncc(-c3ccc(NCCc4ccccn4)nc3)c2cc1OC [Cpd 93] | 17.9 nM |
| COc1cc2nncc(-c3ccc(Nc4cccc(C#N)c4)nc3)c2cc1OC [Cpd 95] | 87.9 nM |
| COc1cc2nncc(-c3ccc(C(C)=O)c(F)c3)c2cc1OC [Cpd 100] | 254 nM |
| COc1cc2nncc(-c3ccc(CN4CC(C(=O)O)C4)cc3)c2cc1OC [Cpd 101, 1-(4-(6,7-dimethoxycinnolin-4-yl)benzyl)azetidine-3-carboxylic acid] | 231 nM |
| COc1cc2nncc(-c3ccc(N4CCC(O)(c5ccccc5)CC4)nc3)c2cc1OC [Cpd 108] | 21.4 nM |
| COc1cc2nncc(-c3cnc(-c4cnc(NC(C)C)c(F)c4)c(F)c3)c2cc1OC [Cpd 115] | 676 nM |
| COc1cc2nncc(-c3ccc(Nc4ccc(-c5cnco5)cc4)nc3)c2cc1OC [Cpd 118] | 38.6 nM |
| COc1cc2nncc(-c3ccc(Nc4nnc(C5CC5)s4)nc3)c2cc1OC [Cpd 119] | 259 nM |
| COc1cc2nncc(-c3ccc(NCc4cccc(OC(F)(F)F)c4)nc3)c2cc1OC [Cpd 122] | 186 nM |
| COc1cc2nncc(-c3ccc(NC(C)C)nc3C)c2cc1OC [Cpd 123] | 18.5 nM |
| COc1cc2nncc(-c3ccc(F)c(NC(C)=O)c3)c2cc1OC [Cpd 146] | 41.5 nM |
